Earlier results in US10729708B2, “Stabilized glycopeptide antibiotic formulations” (XELLIA PHARMACEUTICALS APS, priority 2016, dated 2020).

Columns and labels:
Conditions in all cases: QC strain, CLSI protocol
[1] = test system: Staphylococcus aureus ATCC 29213
[2] = test system: Enterococcus faecalis ATCC 29212
[3] = test system: Streptococcus pnemoniae ATCC 49619

For `CN[C@H](CC(C)C)C(=O)NC1C(=O)N[C@@H](CC(N)=O)C(=O)N[C@H]2C(=O)N[C@H]3C(=O)NC(C(=O)N[C@@H](C(=O)O)c4cc(O)cc(O)c4-c4cc3ccc4O)[C@H](O)c3ccc(c(Cl)c3)Oc3cc2cc(c3O[C@@H]2OC(CO)[C@@H](O)C(O)C2O[C@H]2CC(C)(N)[C@H](O)C(C)O2)Oc2ccc(cc2Cl)C1O.Cl` (stereo partly drawn) [Vancomycin], the “Referent MIC ranges” value [1] is given as 0.5 to 2 µg/mL, the “Referent MIC ranges” value [2] is given as 1 to 4 µg/mL and the “Referent MIC ranges” value [3] is given as 0.125 to 0.5 µg/mL.
